Patent US20060241099A1 (Pliva-Istrazivacki Institut d.o.o., priority 2003, published 2006)

Columns and labels:
5-HT2A receptor = target: T1, 5-HT2A receptor (Homo sapiens, UniProt P28223); assay: radioligand binding assay for 5-HT2A receptor ([3H]-ketanserin); settings: human cortex or recombinant 5-HT2A receptor expressed in CHO-K1 cells; for IC50: read-out: binding affinity to 5-HT2A serotonin receptor expressed as IC50 value; for Ki: read-out: binding affinity to 5-HT2A serotonin receptor, Ki value
T1 construct: expressed in transfected cells; host or cells: CHO-K1 (or human cortex tissue)
T1 sequence (P28223 whole entry): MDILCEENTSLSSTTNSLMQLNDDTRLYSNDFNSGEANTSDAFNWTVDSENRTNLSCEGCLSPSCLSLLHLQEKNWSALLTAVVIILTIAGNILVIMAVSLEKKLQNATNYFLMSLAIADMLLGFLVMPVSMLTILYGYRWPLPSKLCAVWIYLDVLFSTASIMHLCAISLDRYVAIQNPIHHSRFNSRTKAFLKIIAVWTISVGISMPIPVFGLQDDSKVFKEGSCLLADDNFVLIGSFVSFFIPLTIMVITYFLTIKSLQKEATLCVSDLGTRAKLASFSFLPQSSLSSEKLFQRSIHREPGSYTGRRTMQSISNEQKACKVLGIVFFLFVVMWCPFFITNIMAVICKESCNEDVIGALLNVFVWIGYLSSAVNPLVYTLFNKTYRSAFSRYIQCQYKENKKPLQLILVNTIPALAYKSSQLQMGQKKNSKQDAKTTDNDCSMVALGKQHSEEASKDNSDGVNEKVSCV
Protocol: (§1) The effect of the compounds of the present invention on the neurochemical steady state was determined by in vitro investigations such as a radionuclide-marked radioligand binding assay for 5-HT2A (Bonhaus D. W. Br. J. Pharmacol. 1995, 115:622; Saucier C. J. Neurochem. 1997, 68:1998) and 5-HT2C receptors (Wolf W. A. J. Neurochem. 1997, 69:1449), in vitro binding assay for al receptor (Thomson W. and Donn R. Arthritis Res. 2002, 4: 302-306) and by in vivo investigations in a tail suspension test (Vogel H. G. and Vogel W. H. Drug Discovery and Evaluation Pharmacological Assays, Springer 1997, 304), in amphethamine-induced hyperlocomotion in mice (Millan M. J. et al, 1998 J Pharmacol. Exp. Ther. 287: 167-186) in a forced swim test in mice (Porsolt R. D. et al. Arch. Int. Pharmacodyn. 1977, 229:327-336), in meta-chlorophenyl piperazine (m-CPP) test on rats (Drug Dev. Res. 1989, 18:119-144) and in apomorphine, tryptamine, norepinephrine (ATN) test in rats (Arch. Int. Pharmacodyn. 1977, 227:238-253).
(§2) A small concentration of a radioligand having a great affinity for binding to a receptor was incubated with a tissue sample enriched with a certain receptor (1-5 mg of tissue) in a buffered medium (0.2-5 μL). Recombinant human HT2A and HT2C receptors were expressed in CHO-K1 or COS-7 cells and were also used for competitive binding. During incubation the radioligand bound to the receptor. When a binding balance was achieved, the receptors to which the radioligand was bound were separated from those to which said ligand was not bound, and the radioactivity of the receptor/radioligand complex was measured. The interaction of the tested compounds with receptors was tested in competitive binding experiments. Various concentrations of tested compounds were added to the incubation mixture containing a prepared tissue enriched with corresponding receptors and the radioligand. The radioligand binding was inhibited by the test compounds proportionally to the affinity of a certain compound for the receptor and to the concentration of the compound.
The radioligand used for the determination of binding to 5-HT2A receptor was [^3H]-ketanserin and the tissue used was human cortex or recombinant 5-HT2A receptor expressed in CHO-K1 cells.

5-HT2C receptor = target: T2, 5-HT2C receptor (Homo sapiens, UniProt P28335); assay: radioligand binding assay for 5-HT2C receptor ([3H]-mesulergine); settings: choroid plexus or recombinant 5-HT2C receptor expressed in CHO-K1 cells; for IC50: read-out: binding affinity to 5-HT2C serotonin receptor expressed as IC50 value; for Ki: read-out: binding affinity to 5-HT2C serotonin receptor, Ki value
T2 construct: expressed in transfected cells; host or cells: CHO-K1 (or choroid plexus tissue)
T2 sequence (P28335 33-458): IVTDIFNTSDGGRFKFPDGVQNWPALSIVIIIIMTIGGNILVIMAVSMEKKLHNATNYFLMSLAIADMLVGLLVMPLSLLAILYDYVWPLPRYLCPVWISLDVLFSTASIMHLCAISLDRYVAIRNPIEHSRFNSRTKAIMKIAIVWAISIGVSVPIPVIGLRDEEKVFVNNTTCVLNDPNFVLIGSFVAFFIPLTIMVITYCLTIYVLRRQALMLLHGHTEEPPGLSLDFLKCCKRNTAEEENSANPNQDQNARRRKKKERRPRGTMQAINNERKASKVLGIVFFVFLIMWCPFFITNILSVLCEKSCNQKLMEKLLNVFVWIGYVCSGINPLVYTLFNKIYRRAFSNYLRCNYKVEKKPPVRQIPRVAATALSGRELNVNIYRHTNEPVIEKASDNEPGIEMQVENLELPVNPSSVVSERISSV
Protocol: as §1, §2
The radioligand used for the determination of binding to 5-HT2C receptor was [^3H]-mesulergine and the tissue used was choroid plexus or recombinant 5-HT2C receptor expressed in CHO-K1 cells.

σ1 receptor = target: T3, σ1 receptor (Homo sapiens, UniProt Q99720); assay: in vitro binding affinity to σ1 receptor, Jurkat cell membranes, [3H]haloperidol; settings: for IC50: read-out: binding affinity to σ1 receptor expressed as IC50 value
T3 construct: endogenous in cells; host or cells: Jurkat cell membranes
T3 sequence (Q99720 whole entry): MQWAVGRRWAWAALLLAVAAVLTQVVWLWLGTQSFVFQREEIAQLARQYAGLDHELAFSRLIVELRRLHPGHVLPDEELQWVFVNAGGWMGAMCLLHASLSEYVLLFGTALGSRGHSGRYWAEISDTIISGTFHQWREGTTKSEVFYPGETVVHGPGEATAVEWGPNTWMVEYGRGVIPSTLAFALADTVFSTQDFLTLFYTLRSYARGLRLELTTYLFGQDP
Protocol: as §1
Jurkat cell were grown in medium, RPMI supplemented with 10% fetal bovine serum, 100 U/ml penicillin and 100 μg/ml streptomycin, collected and their suspension homogenized. After centrifugation, the membrane fraction was separated, resuspended in phosphate buffer (pH=7.5) and stored in small aliquots in liquid nitrogen until use. Binding of different radiolabeled ligands to Jurkat cell membranes was measured as described previously (Ramamoorthy et al., 1995). To characterize the σ binding sites in the Jurkat cell line, [^3H]haloperidol was first used as the ligand. Haloperidol is a high affinity ligand to both type 1 and type 2 σ-receptors. The binding assays were done using Jurkat cell membranes in the presence of [^3H]haloperidol ([…]) alone to determine the total binding, and in the presence of [^3H]haloperidol (10 nM) and unlabeled haloperidol (10 μM) to determine the nonspecific binding. Membranes were incubated with ligands in phosphate buffer for 3 hours at room temperature. After the filter had been washed, radioactivity associated with the filter was determined by liquid scintillation spectrometry.

mice = assay: amphetamine-induced hyperlocomotion in mice; assay type: in vivo; settings: male Swiss OFA mice, per os in saline, test doses of 1 mg/kg and 0,1 mg/kg, dexamphetamine sulphate 2 mg/kg i.p.
Protocol: Male Swiss OFA mice of a weight 30-35 g were treated with either vehicle (saline) or test compounds 30 minutes prior to hyperlocomotion induction. Dexamphetamine sulphate was administered intraperitoneally at 2 mg/kg. Thirty minutes later, animals were placed in a wooden box 80×80 cm^2 in a room with low light intensity (100 lux) for locomotor activity recording. Locomotor activity was determined during a 30 min period using a video image analyzer. Total duration of movement, occurence of movement and total distance travelled were measured. Haloperidol was tested at the dose of 0,25 mg/kg (prepared in 0.5% methylcellulose) and served as reference substance.
Compounds were considered as active if in a dose of 10 mg/kg reduced amphetamine-induced hyperlocomotion in experimental animals for 30% and more when compared to vehicle treated control group.

| IC50 (5-HT2A receptor) | Ki (5-HT2A receptor) | IC50 (5-HT2C receptor) | Ki (5-HT2C receptor) | Ki (σ1 receptor) | IC50 (σ1 receptor) | Compound | inhibition of amphetamine-induced hyperlocomotion (mice) |
| --- | --- | --- | --- | --- | --- | --- | --- |
| < 200 nM | < 100 nM | < 200 nM | < 100 nM | – | – | NCCCOCc1scc2c1-c1ccccc1Oc1ccccc1-2 [3-(8-oxa-2-thia-dibenzo[e,h]azulen-1-ylmethoxy)-propylamine] | – |
| < 200 nM | < 100 nM | < 200 nM | < 100 nM | < 100 nM | < 200 nM | CN(C)CCOCc1scc2c1-c1ccccc1Sc1ccccc1-2 [[2-(2,8-dithia-dibenzo[e,h]azulen-1-ylmethoxy)-ethyl]-dimethyl-amine] | – |
| < 200 nM | < 100 nM | < 200 nM | < 100 nM | < 100 nM | < 200 nM | CN(C)CCOCc1scc2c1-c1ccccc1Oc1ccc(Cl)cc1-2 [[2-(5-chloro-8-oxa-2-thia-dibenzo[e,h]azulen-1-ylmethoxy)-ethyl]-dimethyl-amine] | – |
| < 200 nM | < 100 nM | < 200 nM | < 100 nM | < 100 nM | < 200 nM | CN(C)CCCOCc1scc2c1-c1ccccc1Sc1ccccc1-2 [[3-(2,8-dithia-dibenzo[e,h]azulen-1-ylmethoxy)-propyl]-dimethyl-amine] | – |
| < 200 nM | < 100 nM | < 200 nM | < 100 nM | < 100 nM | < 200 nM | CN(C)CCOCc1scc2c1-c1ccccc1Oc1ccccc1-2 [dimethyl-[2-(8-oxa-2-thia-dibenzo[e,h]azulen-1-ylmethoxy)-ethyl]-amine] | – |
| < 200 nM | < 100 nM | < 200 nM | < 100 nM | – | – | CN(C)CCCOCc1scc2c1-c1ccccc1Oc1ccccc1-2 [dimethyl-[3-(8-oxa-2-thia-dibenzo[e,h]azulen-1-ylmethoxy)-propyl]-amine] | – |
| – | – | – | – | – | – | [2-(2,8-dithia-dibenzo[e,h]azulen-1-ylmethoxy)-ethyl]-dimethyl-ammonium citrate | 40-60% |

| Compound | IC50 (5-HT2A receptor) | Ki (5-HT2A receptor) | IC50 (5-HT2C receptor) | Ki (5-HT2C receptor) | Ki (σ1 receptor) | IC50 (σ1 receptor) | inhibition of amphetamine-induced hyperlocomotion (mice) |
| --- | --- | --- | --- | --- | --- | --- | --- |
| NCCCOCc1scc2c1-c1cc(Cl)ccc1Oc1ccccc1-2 | < 200 nM | < 100 nM | < 200 nM | < 100 nM | – | – | – |
